Assay results as given in ChEMBL document CHEMBL3991601, “The target landscape of clinical kinase drugs” (Science, 2017).
Where a name gives a salt, the structure may show the parent alone. Activity calls are given as the source filed them.

Experiments:
[1] = molecular target: Bone morphogenetic protein receptor type-1A (Homo sapiens, UniProt P36894)
[2] = molecular target: T1, Succinate--CoA ligase [ADP-forming] subunit beta, mitochondrial (Homo sapiens, UniProt Q9P2R7)
T1 sequence (Q9P2R7 whole entry): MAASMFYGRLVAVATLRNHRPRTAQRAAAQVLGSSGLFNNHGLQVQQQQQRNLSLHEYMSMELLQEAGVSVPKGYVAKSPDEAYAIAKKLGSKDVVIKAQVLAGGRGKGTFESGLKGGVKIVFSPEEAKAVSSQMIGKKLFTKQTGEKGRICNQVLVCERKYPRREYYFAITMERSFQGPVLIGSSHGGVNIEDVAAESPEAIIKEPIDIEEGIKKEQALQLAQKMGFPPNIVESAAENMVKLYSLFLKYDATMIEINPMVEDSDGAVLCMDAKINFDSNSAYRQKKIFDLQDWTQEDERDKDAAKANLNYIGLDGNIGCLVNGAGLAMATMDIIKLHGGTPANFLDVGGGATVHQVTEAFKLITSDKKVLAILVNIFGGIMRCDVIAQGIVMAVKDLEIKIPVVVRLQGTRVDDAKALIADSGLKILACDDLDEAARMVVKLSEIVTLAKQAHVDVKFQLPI

[3] = molecular target: T2, Serine/threonine-protein kinase D2 (Homo sapiens, UniProt Q9BZL6)
T2 sequence (Q9BZL6 whole entry): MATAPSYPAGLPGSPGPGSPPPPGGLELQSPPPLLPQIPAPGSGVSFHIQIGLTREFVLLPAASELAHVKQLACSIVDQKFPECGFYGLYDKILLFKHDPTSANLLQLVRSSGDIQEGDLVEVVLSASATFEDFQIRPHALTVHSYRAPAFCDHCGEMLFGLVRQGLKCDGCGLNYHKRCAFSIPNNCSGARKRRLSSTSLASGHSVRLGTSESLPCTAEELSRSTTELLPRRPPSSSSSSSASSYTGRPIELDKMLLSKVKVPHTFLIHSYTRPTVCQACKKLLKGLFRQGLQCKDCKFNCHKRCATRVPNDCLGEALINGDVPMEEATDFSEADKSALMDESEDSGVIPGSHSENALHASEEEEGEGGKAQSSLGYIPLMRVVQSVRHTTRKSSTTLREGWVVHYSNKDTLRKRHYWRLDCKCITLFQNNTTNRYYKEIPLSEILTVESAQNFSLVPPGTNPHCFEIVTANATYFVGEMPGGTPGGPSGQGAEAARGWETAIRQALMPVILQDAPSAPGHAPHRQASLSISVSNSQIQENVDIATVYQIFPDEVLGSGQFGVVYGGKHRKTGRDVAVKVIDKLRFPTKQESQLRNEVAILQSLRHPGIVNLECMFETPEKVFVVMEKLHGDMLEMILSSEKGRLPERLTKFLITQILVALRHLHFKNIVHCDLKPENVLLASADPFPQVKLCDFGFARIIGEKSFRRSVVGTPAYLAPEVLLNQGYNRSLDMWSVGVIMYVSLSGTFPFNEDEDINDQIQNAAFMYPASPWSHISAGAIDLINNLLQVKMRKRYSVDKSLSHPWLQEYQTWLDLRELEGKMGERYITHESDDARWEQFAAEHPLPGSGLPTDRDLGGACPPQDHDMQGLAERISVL

[4] = molecular target: T3, Serine/threonine-protein kinase 4 (Homo sapiens, UniProt Q13043)
T3 sequence (Q13043 whole entry): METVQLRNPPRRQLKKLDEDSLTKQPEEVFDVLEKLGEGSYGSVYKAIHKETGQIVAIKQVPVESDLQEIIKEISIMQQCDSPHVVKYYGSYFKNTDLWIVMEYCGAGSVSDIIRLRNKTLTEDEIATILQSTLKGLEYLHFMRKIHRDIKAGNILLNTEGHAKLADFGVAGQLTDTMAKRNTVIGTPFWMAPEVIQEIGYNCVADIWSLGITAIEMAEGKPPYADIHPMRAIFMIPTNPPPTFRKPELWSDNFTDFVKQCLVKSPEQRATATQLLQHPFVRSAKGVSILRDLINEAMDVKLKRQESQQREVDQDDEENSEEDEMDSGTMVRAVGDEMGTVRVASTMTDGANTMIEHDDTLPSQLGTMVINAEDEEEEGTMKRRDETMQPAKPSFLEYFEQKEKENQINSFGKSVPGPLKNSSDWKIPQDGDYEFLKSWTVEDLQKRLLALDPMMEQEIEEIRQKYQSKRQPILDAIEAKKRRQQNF

[5] = molecular target: cAMP-dependent protein kinase catalytic subunit beta (Homo sapiens, UniProt P22694)
[6] = molecular target: T4, Dynamin-like GTPase OPA1, mitochondrial (Homo sapiens, UniProt O60313)
T4 sequence (O60313 whole entry): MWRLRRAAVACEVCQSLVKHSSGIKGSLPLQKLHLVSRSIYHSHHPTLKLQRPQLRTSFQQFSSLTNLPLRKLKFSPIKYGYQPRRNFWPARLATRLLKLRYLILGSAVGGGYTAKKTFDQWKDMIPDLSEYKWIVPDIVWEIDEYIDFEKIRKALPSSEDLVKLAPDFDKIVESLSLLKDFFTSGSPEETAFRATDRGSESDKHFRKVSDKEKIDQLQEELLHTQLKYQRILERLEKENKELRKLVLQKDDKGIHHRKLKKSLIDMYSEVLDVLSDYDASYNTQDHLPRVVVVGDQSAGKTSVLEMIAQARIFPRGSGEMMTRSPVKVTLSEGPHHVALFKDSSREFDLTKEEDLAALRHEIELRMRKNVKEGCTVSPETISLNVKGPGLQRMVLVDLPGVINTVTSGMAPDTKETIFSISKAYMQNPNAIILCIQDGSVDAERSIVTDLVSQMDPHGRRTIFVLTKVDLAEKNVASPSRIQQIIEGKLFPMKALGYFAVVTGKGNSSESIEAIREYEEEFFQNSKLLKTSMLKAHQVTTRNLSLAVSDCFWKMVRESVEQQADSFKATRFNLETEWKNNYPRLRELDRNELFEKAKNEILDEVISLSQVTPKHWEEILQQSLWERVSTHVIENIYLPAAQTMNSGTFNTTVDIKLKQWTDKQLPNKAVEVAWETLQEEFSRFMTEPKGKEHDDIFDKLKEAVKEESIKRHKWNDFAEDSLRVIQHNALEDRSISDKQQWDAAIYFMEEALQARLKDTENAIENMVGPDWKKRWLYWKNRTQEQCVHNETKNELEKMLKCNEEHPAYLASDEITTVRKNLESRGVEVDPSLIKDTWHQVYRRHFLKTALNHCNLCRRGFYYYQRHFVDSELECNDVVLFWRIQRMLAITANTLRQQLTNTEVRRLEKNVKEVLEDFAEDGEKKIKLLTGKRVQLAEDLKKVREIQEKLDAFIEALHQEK
Further: in the data inactive means no Kd found up to 30 µM.

Bone morphogenetic protein receptor type-1A, sequence (P36894 whole entry): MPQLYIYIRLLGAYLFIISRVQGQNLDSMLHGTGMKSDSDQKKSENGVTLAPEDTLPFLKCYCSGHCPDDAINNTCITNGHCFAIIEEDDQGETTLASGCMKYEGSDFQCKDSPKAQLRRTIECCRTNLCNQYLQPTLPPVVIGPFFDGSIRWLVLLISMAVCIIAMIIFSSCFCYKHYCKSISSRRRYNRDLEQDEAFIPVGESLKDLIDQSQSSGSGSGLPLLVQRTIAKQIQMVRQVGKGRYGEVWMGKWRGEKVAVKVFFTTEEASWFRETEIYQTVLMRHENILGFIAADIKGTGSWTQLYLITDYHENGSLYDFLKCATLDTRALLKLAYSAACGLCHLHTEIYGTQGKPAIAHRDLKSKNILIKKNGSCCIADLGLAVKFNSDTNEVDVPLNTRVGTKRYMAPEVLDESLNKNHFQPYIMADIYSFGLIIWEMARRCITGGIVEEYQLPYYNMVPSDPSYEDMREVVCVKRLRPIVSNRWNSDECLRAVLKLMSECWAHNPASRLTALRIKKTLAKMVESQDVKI

SMILES: C[C@H]1CNCCCN1S(=O)(=O)c1cccc2cncc(F)c12
- Kd [1]: > 30 µM (inactive)
- Kd [2]: > 30 µM (inactive)
- Kd [3]: 3.7 µM (active)
- Kd [4]: > 30 µM (inactive)
- Kd [5]: > 30 µM (inactive)
- Kd [6]: > 30 µM (inactive)

SMILES: CC(=O)c1cnc2ccc(-c3cc(Cl)c(O)c(Cl)c3)nc2c1N[C@H]1CC[C@H](CN(C)C)CC1
- Kd [1]: > 30 µM (inactive)
- Kd [2]: > 30 µM (inactive)
- Kd [3]: 0.069 µM (active)
- Kd [4]: 0.067 µM (active)
- Kd [5]: > 30 µM (inactive)
- Kd [6]: > 30 µM (inactive)

SMILES: C=CC(=O)N1CCC[C@H](n2c(=O)n(-c3ccc(Oc4ccccc4)cc3)c3c(N)ncnc32)C1
- Kd [1]: > 30 µM (inactive)
- Kd [2]: > 30 µM (inactive)
- Kd [3]: > 30 µM (inactive)
- Kd [4]: > 30 µM (inactive)
- Kd [5]: > 30 µM (inactive)
- Kd [6]: > 30 µM (inactive)

SMILES: Cc1nc(NC(=O)N2CCC[C@H]2C(N)=O)sc1-c1ccnc(C(C)(C)C(F)(F)F)c1 [ALPELISIB]
- Kd [1]: > 30 µM (inactive)
- Kd [2]: > 30 µM (inactive)
- Kd [3]: > 30 µM (inactive)
- Kd [4]: > 30 µM (inactive)
- Kd [5]: > 30 µM (inactive)
- Kd [6]: > 30 µM (inactive)

SMILES: Cc1csc(-c2nnc(Nc3ccc(Oc4ncccc4-c4ccnc(N)n4)cc3)c3ccccc23)c1 [AMG-900]
- Kd [1]: > 30 µM (inactive)
- Kd [3]: 5.67 µM (active)
- Kd [4]: > 30 µM (inactive)
- Kd [5]: > 30 µM (inactive)
- Kd [6]: > 30 µM (inactive)

SMILES: COc1cc([C@@H]2c3cc4c(cc3[C@H](O)[C@H]3COC(=O)[C@@H]23)OCO4)cc(OC)c1OC [AXL-1717]
- Kd [1]: > 30 µM (inactive)
- Kd [2]: > 30 µM (inactive)
- Kd [3]: > 30 µM (inactive)
- Kd [4]: > 30 µM (inactive)
- Kd [5]: > 30 µM (inactive)
- Kd [6]: > 30 µM (inactive)

SMILES: NC(=O)Nc1cc(-c2cccc(F)c2)sc1C(=O)N[C@H]1CCCNC1 [AZD-7762]
- Kd [1]: > 30 µM (inactive)
- Kd [3]: 1.16 µM (active)
- Kd [4]: 0.056 µM (active)
- Kd [5]: > 30 µM (inactive)
- Kd [6]: > 30 µM (inactive)

SMILES: Cn1cnc2c(F)c(Nc3ccc(Br)cc3F)c(C(=O)NOCCO)cc21 [BINIMETINIB]
- Kd [1]: > 30 µM (inactive)
- Kd [2]: > 30 µM (inactive)
- Kd [3]: > 30 µM (inactive)
- Kd [4]: > 30 µM (inactive)
- Kd [5]: > 30 µM (inactive)
- Kd [6]: > 30 µM (inactive)

SMILES: CCS(=O)(=O)N1CCN(c2ccc(Nc3ncc(C(N)=O)c(NC4CC4)n3)cc2)CC1 [Cerdulatinib Hydrochloride]
- Kd [1]: > 30 µM (inactive)
- Kd [2]: > 30 µM (inactive)
- Kd [3]: 1.21 µM (active)
- Kd [4]: 0.102 µM (active)
- Kd [5]: > 30 µM (inactive)
- Kd [6]: > 30 µM (inactive)

SMILES: CC(C)(C)c1nc(-c2cccc(NS(=O)(=O)c3c(F)cccc3F)c2F)c(-c2ccnc(N)n2)s1 [DABRAFENIB]
- Kd [1]: > 30 µM (inactive)
- Kd [3]: 0.034 µM (active)
- Kd [4]: > 30 µM (inactive)
- Kd [6]: > 30 µM (inactive)

SMILES: Cn1cc(C2=C(c3cn(C4CCN(Cc5ccccn5)CC4)c4ccccc34)C(=O)NC2=O)c2ccccc21 [ENZASTAURIN]
- Kd [2]: > 30 µM (inactive)
- Kd [6]: > 30 µM (inactive)

SMILES: Cc1[nH]c(/C=C2\C(=O)Nc3ccccc32)c(C)c1CCC(=O)O [ORANTINIB]
- Kd [1]: > 30 µM (inactive)
- Kd [5]: > 30 µM (inactive)
- Kd [6]: > 30 µM (inactive)

SMILES: CCOc1cc2ncc(C#N)c(Nc3ccc(F)c(Cl)c3)c2cc1NC(=O)/C=C/CN(C)C [PELITINIB]
- Kd [1]: > 30 µM (inactive)
- Kd [2]: > 30 µM (inactive)
- Kd [3]: > 30 µM (inactive)
- Kd [5]: > 30 µM (inactive)
- Kd [6]: > 30 µM (inactive)

SMILES: Cc1nc(Nc2n[nH]c3c2CN(C(=O)N[C@H](CN(C)C)c2ccccc2)C3(C)C)c2sccc2n1 [PF-03758309]
- Kd [1]: > 30 µM (inactive)
- Kd [2]: > 30 µM (inactive)
- Kd [4]: 4.32 µM (active)
- Kd [6]: > 30 µM (inactive)

SMILES: N#CC[C@H](C1CCCC1)n1cc(-c2ncnc3[nH]ccc23)cn1 [RUXOLITINIB]
- Kd [2]: > 30 µM (inactive)
- Kd [6]: > 30 µM (inactive)

SMILES: Cn1ncc(Cl)c1-c1cc(C(=O)N[C@H](CN)Cc2ccc(F)c(F)c2)oc1Cl [UPROSERTIB]
- Kd [1]: > 30 µM (inactive)
- Kd [2]: > 30 µM (inactive)
- Kd [4]: > 30 µM (inactive)
- Kd [5]: 0.049 µM (active)
- Kd [6]: > 30 µM (inactive)
